Columns and labels:
Type in all cases: cell-based
Actinomyces oris = experiment: Bacterial growth of Actinomyces oris in the presence of polyols; conditions: aerobic conditions, FIG. 6
Experimental: (§1) The growth of these strains was then measured in the presence of isosorbide, maltitol, xylitol, allulose, sorbitol powder and dextrose monohydrate in an unrefreshed culture medium, incubated at 37° C. for 48 hours or 72 hours under aerobic or anaerobic conditions. The growths were measured by bacterial counting on solid medium. The results are expressed in Log 10 (CFU/ml). The culture media used are the Bacto Brain Heart Infusion (ref. 237500-BD (BHI)) and Difco™ Brain Heart Infusion Agar (ref. 241830-BD (BHIa)) culture media.

Actinomyces naeslundii = experiment: Bacterial growth of Actinomyces naeslundii in the presence of polyols; conditions: for bacterial population: FIG. 4 as printed
Experimental: as §1

Streptococcus mutans [1] = experiment: Bacterial growth and biofilm of Streptococcus mutans strain from a decayed tooth, in the presence of polyols; conditions: FIG. 2
Experimental: as §1, with “incubated at 37° C. for 48 hours or 72 hours under aerobic or anaerobic” left out

Streptococcus mutans [2] = experiment: Bacterial growth of Streptococcus mutans strain from a healthy tooth, in the presence of polyols, counting on solid medium; conditions: aerobic conditions, FIG. 1
Experimental: as §1

oral bacterial strains = experiment: Growth of the oral bacterial strains overall (summary of all strains tested)
Experimental: as §1

Lactobacillus gasseri = experiment: Bacterial growth of Lactobacillus gasseri in the presence of polyols; conditions: anaerobic conditions, FIG. 3
Experimental: as §1

Structure (SMILES): OC[C@@H](O)[C@H](O)[C@@H](O)CO [xylitol, reference compound]
- bacterial growth (Actinomyces oris): slowed relative to the other polyols tested
- bacterial growth (Actinomyces naeslundii; aerobic conditions, FIG. 5): appears to further curb the bacterial growth than the other polyols tested
- bacterial population (Actinomyces naeslundii; anaerobic conditions): remains stable

Structure (SMILES): O[C@@H]1CO[C@H]2[C@@H]1OC[C@@H]2O [isosorbide, 1,4:3,6-dianhydrosorbitol]
- bacterial growth (Streptococcus mutans [1]; anaerobic conditions): varies little
- biofilm formed (Streptococcus mutans [1]; anaerobic conditions, after 96 hours of incubation): biofilm formed in the absence of isosorbide is much more pronounced than in the presence of isosorbide
- bacterial growth (Streptococcus mutans [1]; strain from a decayed tooth): Very slowed growth
- bacterial growth (Actinomyces oris): decreases greatly over time in the presence of isosorbide, then stabilizes after 24 hours
- bacterial population after 24 hours (Streptococcus mutans [2]): declines slightly
- kind of effect on the bacterial population (Streptococcus mutans [2]): bacteriostatic effect
- bacterial growth (Streptococcus mutans [2]; T=24 hours): remain absent
- bacterial growth (Actinomyces naeslundii; aerobic conditions, FIG. 5): remains low relative to the other polyols
- bacterial population from T=40 hours (Actinomyces naeslundii; aerobic conditions, from T=40 hours, FIG. 5): substantial decrease
- kind of effect on the bacterial population (Actinomyces naeslundii; anaerobic conditions): bactericidal effect
- bacterial population (Actinomyces naeslundii; anaerobic conditions): falls constantly until it disappears completely
- growth of the bacterial strains, all cases (oral bacterial strains; all strains and conditions tested): very significant decrease
- level of performance relative to xylitol or sorbitol (oral bacterial strains; comparison with polyols of commercial toothpastes): even higher than that observed with xylitol or sorbitol
- bacterial growth (Lactobacillus gasseri; T=24 hours): remains absent
- kind of effect, populations beyond 24 hours (Lactobacillus gasseri; beyond 24 hours): inhibitory effect

Structure (SMILES): O=C(CO)C(O)C(O)C(O)CO (stereo not shown) [allulose]
- bacterial growth (Actinomyces oris): slowed relative to the other polyols tested

Reference: patent US12226507B2, “Use of dianhydrohexitol in oral and dental care to reduce the development of bacterial strains” (ROQUETTE FRERES, priority 2017, dated 2025)
